From paper PMC6834076, “Crystal structures of the Bacillus subtilis prophage lytic cassette proteins XepA and YomS” (Acta Crystallographica. Section D, Structural Biology, 2019)

Experiments:
XlyA = target: T1, XlyA (Bacillus subtilis, UniProt P39800); experiment: thermal shift assay (SYPRO Orange); type: binding; details: (GlcNAc)3 concentration for this protein not stated (16 mM with HEWL)
T1 construct: full coding region, N-terminal His6 tag, vector pJOE5751 (plasmid pHWG1185), E. coli JM109, HisTrap; prophage PBSX gene

XlyB = target: T2, XlyB (Bacillus subtilis, UniProt O34391); experiment: thermal shift assay (SYPRO Orange); type: binding; details: (GlcNAc)3 concentration for this protein not stated (16 mM with HEWL)
T2 construct: full coding region, N-terminal His6 tag, vector pJOE5751 (plasmid pHWG1184), E. coli JM109, HisTrap; prophage PBSX gene
T2 sequence (O34391 2-317): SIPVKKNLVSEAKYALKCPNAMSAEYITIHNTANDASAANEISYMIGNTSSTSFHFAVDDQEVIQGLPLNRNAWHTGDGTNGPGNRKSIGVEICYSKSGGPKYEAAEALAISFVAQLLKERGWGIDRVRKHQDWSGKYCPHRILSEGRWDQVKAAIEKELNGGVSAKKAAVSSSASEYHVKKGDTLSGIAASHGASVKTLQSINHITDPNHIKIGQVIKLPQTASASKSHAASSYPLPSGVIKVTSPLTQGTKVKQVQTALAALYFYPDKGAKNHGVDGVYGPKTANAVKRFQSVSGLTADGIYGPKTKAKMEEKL

T1 sequence (P39800 2-297): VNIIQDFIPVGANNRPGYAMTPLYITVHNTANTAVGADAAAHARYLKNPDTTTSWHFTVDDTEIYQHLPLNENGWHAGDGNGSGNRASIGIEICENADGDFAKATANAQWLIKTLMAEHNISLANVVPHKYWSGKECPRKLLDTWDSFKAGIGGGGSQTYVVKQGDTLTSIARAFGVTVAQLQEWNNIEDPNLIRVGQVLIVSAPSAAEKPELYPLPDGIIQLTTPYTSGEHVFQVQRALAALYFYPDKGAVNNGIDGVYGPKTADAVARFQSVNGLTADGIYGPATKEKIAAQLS

`CC(=O)N[C@H]1[C@H](O[C@H]2[C@H](O)[C@@H](NC(C)=O)C(O)O[C@@H]2CO)O[C@H](CO)[C@@H](O[C@@H]2O[C@H](CO)[C@@H](O)[C@H](O)[C@H]2NC(C)=O)[C@@H]1O` (some centres unmarked) [triacetylchitotriose] gave a dTm (XlyA) of 2 °C and a dTm (XlyB) of 2 °C.
